Assay results reported in US9695155B2, “Herbicidal substituted pyrimidinyloxy benzene compounds” (E. I. DU PONT DE NEMOURS AND COMPANY, priority 2013, dated 2017).

Experiments:
barnyardgrass [1] = experiment: Test B flooded paddy test; format: in vivo, Echinochloa crus-galli; conditions: Flood, 250 g ai/ha; 0 to 100 scale where 0 is no effect and 100 is complete control
In short: (§1)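 Plants were grown to the 2-leaf stage, then pots were flooded to 3 cm above the soil and compounds were applied directly into the paddy water. That depth was held throughout, and after 13 to 15 days in the greenhouse injury was rated visually against controls on a 0–100 scale (0 no effect, 100 complete control).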

sedge, umbrella [2] = experiment: Test B flooded paddy test; format: in vivo, Cyperus difformis; conditions: Flood, 250 g ai/ha; 0 to 100 scale where 0 is no effect and 100 is complete control
In short: as §1

barnyardgrass [3] = experiment: Test C flooded paddy test; format: in vivo, Echinochloa crus-galli; conditions: Flood, scale 0 to 100 (0 no effect, 100 complete control), 13 to 15 days
Excerpt: (§2) At time of treatment, test pots were flooded to 3 cm above the soil surface, treated by application of test compounds directly to the paddy water, and then maintained at that water depth for the duration of the test. Treated plants and controls were maintained in a greenhouse for 13 to 15 days, after which time all species were compared to controls and visually evaluated. […] A dash (-) response means no test result.

velvetleaf [4] = experiment: Test A preemergence; format: in vivo, Abutilon theophrasti
In short: (§3)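 Visual injury scored 0–100 (100 = complete control) against untreated controls about 10 days after treatment in a greenhouse. Test chemicals, formulated with surfactant in non-phytotoxic solvent, were sprayed on soil preemergence or on 2-10 cm, one- to two-leaf plants postemergence.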

corn [5] = experiment: Test A preemergence; format: in vivo, Zea mays
In short: as §3

large (Lg) crabgrass [6] = experiment: Test A preemergence; format: in vivo, Digitaria sanguinalis
In short: as §3

ducksalad = experiment: Test C flooded paddy test; format: in vivo, Heteranthera limosa; conditions: Flood, scale 0 to 100 (0 no effect, 100 complete control), 13 to 15 days
Excerpt: as §2

large (Lg) crabgrass [7] = experiment: Test A postemergence; format: in vivo, Digitaria sanguinalis
In short: as §3

Heteranthera limosa = experiment: Test B flooded paddy test; format: in vivo; conditions: Flood, 250 g ai/ha; 0 to 100 scale where 0 is no effect and 100 is complete control
In short: as §1

velvetleaf [8] = experiment: Test A postemergence; format: in vivo, Abutilon theophrasti
In short: as §3

corn [9] = experiment: Test A postemergence; format: in vivo, Zea mays
In short: as §3

rice [10] = experiment: Test C flooded paddy test; format: in vivo, Oryza sativa; conditions: Flood, scale 0 to 100 (0 no effect, 100 complete control), 13 to 15 days
Excerpt: as §2

wheat [11] = experiment: Test A postemergence; format: in vivo, Triticum aestivum
In short: as §3

pigweed [12] = experiment: Test A postemergence; format: in vivo, Amaranthus retroflexus
In short: as §3

pigweed [13] = experiment: Test A preemergence; format: in vivo, Amaranthus retroflexus; conditions: for Pigweed plant response rating: 500 g ai/ha
In short: as §3

barnyardgrass [14] = experiment: Test A postemergence; format: in vivo, Echinochloa crus-galli
In short: as §3

rice [15] = experiment: Test B flooded paddy test; format: in vivo, Oryza sativa; conditions: Flood, 250 g ai/ha; 0 to 100 scale where 0 is no effect and 100 is complete control
In short: as §1

giant foxtail [16] = experiment: Test A preemergence; format: in vivo, Setaria faberii; conditions: for Foxtail, Giant plant response rating: 500 g ai/ha
In short: as §3

giant foxtail [17] = experiment: Test A postemergence; format: in vivo, Setaria faberii
In short: as §3

wheat [18] = experiment: Test A preemergence; format: in vivo, Triticum aestivum
In short: as §3

barnyardgrass [19] = experiment: Test A preemergence; format: in vivo, Echinochloa crus-galli; conditions: for Barnyardgrass plant response rating: 500 g ai/ha
In short: as §3

sedge, umbrella [20] = experiment: Test C flooded paddy test; format: in vivo, Cyperus difformis; conditions: Flood, scale 0 to 100 (0 no effect, 100 complete control), 13 to 15 days
Excerpt: as §2

morningglory = experiment: Test A postemergence; format: in vivo, Ipomoea spp.
In short: as §3

ragweed [21] = experiment: Test A preemergence; format: in vivo, Ambrosia elatior
In short: as §3

Italian ryegrass [22] = experiment: Test A postemergence; format: in vivo, Lolium multiflorum; conditions: 0 to 100 scale where 0 is no effect and 100 is complete control
In short: as §3

galium = experiment: Test A postemergence; format: in vivo, Galium aparine; conditions: 0 to 100 scale where 0 is no effect and 100 is complete control
In short: as §3

kochia [23] = experiment: Test A preemergence; format: in vivo, Kochia scoparia
In short: as §3

ragweed [24] = experiment: Test A postemergence; format: in vivo, Ambrosia elatior; conditions: 0 to 100 scale where 0 is no effect and 100 is complete control
In short: as §3

Italian ryegrass [25] = experiment: Test A preemergence; format: in vivo, Lolium multiflorum
In short: as §3

kochia [26] = experiment: Test A postemergence; format: in vivo, Kochia scoparia; conditions: 0 to 100 scale where 0 is no effect and 100 is complete control
In short: as §3

blackgrass = experiment: Test A postemergence; format: in vivo, Alopecurus myosuroides; conditions: 0 to 100 scale where 0 is no effect and 100 is complete control
In short: as §3

[27] = 125 g ai/ha, 0 to 100 scale where 0 is no effect and 100 is complete control
[28] = 500 g ai/ha, 0 to 100 scale, 0 no effect, 100 complete control, approx. 10 days
[29] = 500 g ai/ha, 0 to 100 scale, 0 no effect, 100 complete control
[30] = 0 to 100 scale, 0 no effect, 100 complete control, approx. 10 days
[31] = 500 g ai/ha, 0 to 100 scale where 0 is no effect and 100 is complete control
[32] = 0 to 100 scale where 0 is no effect and 100 is complete control

Clc1cnc(Oc2ccccc2-n2cnc(Br)c2)nc1 [Compound 34]
Plant response rating, Barnyardgrass (barnyardgrass [1]): 20
Plant response rating, Sedge, Umbrella (sedge, umbrella [2]): 90
Plant response rating, Barnyardgrass (barnyardgrass [3]; 31 g ai/ha): 0
Plant response rating, Barnyardgrass (barnyardgrass [3]; 62 g ai/ha): 0
Plant response rating, Barnyardgrass (barnyardgrass [3]; 125 g ai/ha): 0
Plant response rating, Barnyardgrass (barnyardgrass [3]; 250 g ai/ha): 10
Plant response rating, Velvetleaf (velvetleaf [4]; [27]): 60
Velvetleaf plant response rating (velvetleaf [4]; [28]): 80
Plant response rating, Corn (corn [5]; [27]): 0
Corn plant response rating (corn [5]; [28]): 0
Plant response rating, Crabgrass, Large (large (Lg) crabgrass [6]; [27]): 70
Crabgrass, Large plant response rating (large (Lg) crabgrass [6]; [28]): 90
Plant response rating, Ducksalad (ducksalad; 31 g ai/ha): 0
Plant response rating, Ducksalad (ducksalad; 62 g ai/ha): 0
Plant response rating, Ducksalad (ducksalad; 125 g ai/ha): 20
Plant response rating, Ducksalad (ducksalad; 250 g ai/ha): 75
Plant response rating, Crabgrass, Large (large (Lg) crabgrass [7]; [27]): 50
Plant response rating, Crabgrass, Large (large (Lg) crabgrass [7]; [29]): 60
Plant response rating, Ducksalad (Heteranthera limosa): 90
Plant response rating, Velvetleaf (velvetleaf [8]; [27]): 80
Plant response rating, Velvetleaf (velvetleaf [8]; [29]): 100
Plant response rating, Corn (corn [9]; [27]): 10
Plant response rating, Corn (corn [9]; [29]): 20
Plant response rating, Rice (rice [10]; 31 g ai/ha): 0
Plant response rating, Rice (rice [10]; 62 g ai/ha): 0
Plant response rating, Rice (rice [10]; 125 g ai/ha): 0
Plant response rating, Rice (rice [10]; 250 g ai/ha): 0
Plant response rating, Wheat (wheat [11]; [27]): 0
Plant response rating, Wheat (wheat [11]; [29]): 20
Plant response rating, Pigweed (pigweed [12]; [27]): 90
Plant response rating, Pigweed (pigweed [12]; [29]): 100
Plant response rating, Pigweed (pigweed [13]; [27]): 80
Pigweed plant response rating (pigweed [13]; [30]): 100
Plant response rating, Barnyardgrass (barnyardgrass [14]; [27]): 20
Plant response rating, Barnyardgrass (barnyardgrass [14]; [29]): 50
Plant response rating, Rice (rice [15]): 30
Plant response rating, Foxtail, Giant (giant foxtail [16]; [27]): 30
Foxtail, Giant plant response rating (giant foxtail [16]; [30]): 100
Plant response rating, Foxtail, Giant (giant foxtail [17]; [27]): 30
Plant response rating, Foxtail, Giant (giant foxtail [17]; [29]): 70
Plant response rating, Wheat (wheat [18]; [27]): 0
Wheat plant response rating (wheat [18]; [28]): 0
Plant response rating, Barnyardgrass (barnyardgrass [19]; [27]): 0
Barnyardgrass plant response rating (barnyardgrass [19]; [30]): 50
Plant response rating, Sedge, Umbrella (sedge, umbrella [20]; 31 g ai/ha): 0
Plant response rating, Sedge, Umbrella (sedge, umbrella [20]; 62 g ai/ha): 0
Plant response rating, Sedge, Umbrella (sedge, umbrella [20]; 125 g ai/ha): 0
Plant response rating, Sedge, Umbrella (sedge, umbrella [20]; 250 g ai/ha): 70
Plant response rating, Morningglory (morningglory; [27]): 60
Plant response rating, Morningglory (morningglory; [29]): 80

COc1ccc(C#N)c(-n2cc(Br)cn2)c1Oc1ncc(Cl)cn1 [Compound 212]
Plant response rating, Barnyardgrass (barnyardgrass [1]): 0
Ragweed plant response rating (0 to 100 scale) (ragweed [21]; 125 g ai/ha): 0
Ragweed plant response rating (ragweed [21]; [31]): 0
Plant response rating, Sedge, Umbrella (sedge, umbrella [2]): 0
Ryegrass, Italian plant response rating (Italian ryegrass [22]; 125 g ai/ha): 20
Plant response rating, Ryegrass, Italian (Italian ryegrass [22]; 500 g ai/ha): 30
Galium plant response rating (galium; 125 g ai/ha): 10
Plant response rating, Galium (galium; 500 g ai/ha): 30
Kochia plant response rating (0 to 100 scale) (kochia [23]; 125 g ai/ha): 0
Kochia plant response rating (kochia [23]; [31]): 40
Ragweed plant response rating (ragweed [24]; 125 g ai/ha): 0
Plant response rating, Ragweed (ragweed [24]; 500 g ai/ha): 10
Ryegrass, Italian plant response rating (0 to 100 scale) (Italian ryegrass [25]; 125 g ai/ha): 0
Ryegrass, Italian plant response rating (Italian ryegrass [25]; [31]): 20
Plant response rating, Ducksalad (Heteranthera limosa): 0
Kochia plant response rating (kochia [26]; 125 g ai/ha): 0
Plant response rating, Kochia (kochia [26]; 500 g ai/ha): 10
Corn plant response rating (corn [9]; [27]): 0
Plant response rating, Corn (corn [9]; [31]): 0
Wheat plant response rating (wheat [11]; [27]): 0
Plant response rating, Wheat (wheat [11]; [31]): 30
Pigweed plant response rating (pigweed [12]; [27]): 20
Plant response rating, Pigweed (pigweed [12]; [31]): 30
Pigweed plant response rating (0 to 100 scale) (pigweed [13]; 125 g ai/ha): 70
Pigweed plant response rating (pigweed [13]; [32]): 90
Barnyardgrass plant response rating (barnyardgrass [14]; [27]): 0
Plant response rating, Barnyardgrass (barnyardgrass [14]; [31]): 0
Plant response rating, Rice (rice [15]): 0
Foxtail, Giant plant response rating (0 to 100 scale) (giant foxtail [16]; 125 g ai/ha): 0
Foxtail, Giant plant response rating (giant foxtail [16]; [32]): 50
Foxtail, Giant plant response rating (giant foxtail [17]; [27]): 0
Plant response rating, Foxtail, Giant (giant foxtail [17]; [31]): 50
Barnyardgrass plant response rating (0 to 100 scale, 0 is no effect, 100 is complete control) (barnyardgrass [19]; 125 g ai/ha): 0
Barnyardgrass plant response rating (barnyardgrass [19]; [32]): 20
Blackgrass plant response rating (blackgrass; 125 g ai/ha): 10
Plant response rating, Blackgrass (blackgrass; 500 g ai/ha): 50
